Source: patent US20260374773A1, “MULTI-CYCLIC IRAK AND FLT3 INHIBITING COMPOUNDS AND USES THEREOF” (CHILDREN'S HOSPITAL MEDICAL CENTER, priority 2022, published 2026)

How the values were obtained:
Type in all cases: biochemical
Details in all cases: isolated kinase, 33P-ATP, 2 h
IRAK4 = target: T1, IRAK4 (Homo sapiens, UniProt Q9NWZ3); experiment: RBC HotSpot kinase inhibition assay, IRAK4
T1 sequence (Q9NWZ3 1-460): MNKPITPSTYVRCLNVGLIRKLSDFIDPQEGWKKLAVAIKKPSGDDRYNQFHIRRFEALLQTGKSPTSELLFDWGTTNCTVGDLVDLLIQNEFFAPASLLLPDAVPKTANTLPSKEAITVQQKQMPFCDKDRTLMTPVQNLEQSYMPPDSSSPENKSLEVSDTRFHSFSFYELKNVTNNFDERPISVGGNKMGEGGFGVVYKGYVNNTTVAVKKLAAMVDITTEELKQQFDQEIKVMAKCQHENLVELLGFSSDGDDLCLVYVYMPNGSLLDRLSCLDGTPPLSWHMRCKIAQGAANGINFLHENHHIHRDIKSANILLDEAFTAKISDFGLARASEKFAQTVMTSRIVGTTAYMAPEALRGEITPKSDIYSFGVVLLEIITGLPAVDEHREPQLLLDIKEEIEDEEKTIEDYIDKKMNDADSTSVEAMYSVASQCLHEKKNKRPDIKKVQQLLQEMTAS
Outline: (§1)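 Isolated kinases, possibly truncated or lacking regulatory receptor domains, in 20 mM Hepes pH 7.5, 10 mM MgCl2, 1 mM EGTA, 0.01% Brij35, 2 mM DTT, 1% DMSO with substrate and cofactors. Compound preincubated 20 min, then ^33P-ATP added; 2 h at room temperature, read by P81 filter binding.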

IRAK1 = IRAK1 (Homo sapiens, UniProt P51617); experiment: RBC HotSpot kinase inhibition assay, IRAK1
Chain of IRAK1 (P51617 whole entry): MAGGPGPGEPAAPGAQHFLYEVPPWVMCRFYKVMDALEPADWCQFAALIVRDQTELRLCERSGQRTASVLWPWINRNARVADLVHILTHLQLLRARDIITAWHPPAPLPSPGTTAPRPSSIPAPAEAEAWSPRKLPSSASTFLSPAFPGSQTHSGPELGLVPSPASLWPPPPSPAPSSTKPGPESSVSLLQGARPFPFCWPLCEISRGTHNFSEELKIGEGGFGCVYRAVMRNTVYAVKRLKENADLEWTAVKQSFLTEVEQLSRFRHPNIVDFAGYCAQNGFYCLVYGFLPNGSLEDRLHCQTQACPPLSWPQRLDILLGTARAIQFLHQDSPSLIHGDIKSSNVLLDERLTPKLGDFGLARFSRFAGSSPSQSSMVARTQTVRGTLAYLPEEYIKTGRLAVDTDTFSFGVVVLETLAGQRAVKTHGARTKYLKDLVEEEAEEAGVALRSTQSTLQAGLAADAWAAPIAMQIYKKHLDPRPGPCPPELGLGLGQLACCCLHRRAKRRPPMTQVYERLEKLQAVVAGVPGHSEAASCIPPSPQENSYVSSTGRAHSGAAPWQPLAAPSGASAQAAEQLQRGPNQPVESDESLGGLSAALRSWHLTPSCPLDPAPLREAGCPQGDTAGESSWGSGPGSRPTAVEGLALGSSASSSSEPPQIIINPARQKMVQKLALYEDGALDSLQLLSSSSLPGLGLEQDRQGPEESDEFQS
Outline: as §1

FLT3 = target: T2, FLT3 (Homo sapiens, UniProt P36888); experiment: RBC HotSpot kinase inhibition assay, FLT3
T2 sequence (P36888 27-993): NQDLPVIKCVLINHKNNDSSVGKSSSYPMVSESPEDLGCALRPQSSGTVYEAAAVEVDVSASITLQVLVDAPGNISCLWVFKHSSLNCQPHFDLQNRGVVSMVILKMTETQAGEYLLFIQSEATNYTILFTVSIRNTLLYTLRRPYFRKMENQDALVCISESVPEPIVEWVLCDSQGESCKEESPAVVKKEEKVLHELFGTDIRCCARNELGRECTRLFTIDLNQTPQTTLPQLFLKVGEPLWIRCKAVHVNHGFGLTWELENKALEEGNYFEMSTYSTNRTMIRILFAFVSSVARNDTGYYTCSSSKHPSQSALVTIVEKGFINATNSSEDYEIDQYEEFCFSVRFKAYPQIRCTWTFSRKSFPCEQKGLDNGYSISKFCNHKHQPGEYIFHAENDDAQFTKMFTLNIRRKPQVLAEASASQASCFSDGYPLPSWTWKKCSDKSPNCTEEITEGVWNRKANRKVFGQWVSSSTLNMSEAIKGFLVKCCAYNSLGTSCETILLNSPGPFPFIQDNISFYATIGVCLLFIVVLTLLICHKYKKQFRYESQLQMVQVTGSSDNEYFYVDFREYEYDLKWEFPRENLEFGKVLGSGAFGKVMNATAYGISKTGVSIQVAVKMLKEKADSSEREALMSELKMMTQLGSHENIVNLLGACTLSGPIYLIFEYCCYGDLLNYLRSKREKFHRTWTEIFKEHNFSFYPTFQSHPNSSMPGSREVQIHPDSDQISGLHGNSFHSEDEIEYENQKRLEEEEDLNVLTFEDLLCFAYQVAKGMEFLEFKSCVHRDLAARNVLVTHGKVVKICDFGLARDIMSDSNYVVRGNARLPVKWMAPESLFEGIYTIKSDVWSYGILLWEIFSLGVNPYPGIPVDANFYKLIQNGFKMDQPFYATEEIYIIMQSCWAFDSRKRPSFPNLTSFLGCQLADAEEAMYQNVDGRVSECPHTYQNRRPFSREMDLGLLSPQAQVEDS
Outline: as §1

Row | Compound | IC50 (IRAK4; Table 17) [nM] | IC50 (IRAK1; Table 17) [nM] | IC50 (FLT3; Table 17) [nM] | IC50 (IRAK4; Table 11) [nM] | IC50 (IRAK1; Table 11) [nM] | IC50 (FLT3; Table 11) [nM]
1 | COc1cn2ncc(-c3nc(N[C@H]4CNCC[C@@H]4F)c(F)cc3F)c2nc1C(C)(C)O [Compound 13, 2-(3-(3,5-difluoro-6-(((3S,4S)-4-fluoropiperidin-3-yl)amino)pyridin-2-yl)-6-methoxypyrazolo[1,5-a]pyrimidin-5-yl)propan-2-ol] | – | – | – | 2 | 7 | < 0.5
2 | COc1cn2ncc(-c3cccc(N[C@H]4CNC[C@@H]4F)n3)c2nc1C1CC1 [Compound 19, 6-(5-cyclopropyl-6-methoxypyrazolo[1,5-a]pyrimidin-3-yl)-N-((3S,4S)-4-fluoropyrrolidin-3-yl)pyridin-2-amine] | – | – | – | 2 | 45 | < 0.5
3 | COc1cn2ncc(-c3cccc(N[C@@H]4CCCNC4)n3)c2nc1C1CC1 [Compound 20, (R)-6-(5-cyclopropyl-6-methoxypyrazolo[1,5-a]pyrimidin-3-yl)-N-(piperidin-3-yl)pyridin-2-amine] | – | – | – | 5 | 146 | < 0.5
4 | COc1cn2ncc(-c3cccc(N[C@H]4CNCC[C@@H]4F)n3)c2nc1C1CC1 [Compound 21, 6-(5-cyclopropyl-6-methoxypyrazolo[1,5-a]pyrimidin-3-yl)-N-((3S,4S)-4-fluoropiperidin-3-yl)pyridin-2-amine] | – | – | – | 2 | 38 | < 0.5
5 | COc1cn2ncc(-c3nc(N[C@H]4CNCC[C@@H]4F)c(F)cc3F)c2nc1C1CC1 [Compound 22, 6-(5-cyclopropyl-6-methoxypyrazolo[1,5-a]pyrimidin-3-yl)-3,5-difluoro-N-((3S,4S)-4-fluoropiperidin-3-yl)pyridin-2-amine] | – | – | – | < 0.5 | < 0.5 | < 0.5
6 | COc1cn2ncc(-c3nc(N[C@H]4CNC[C@@H]4F)c(F)cc3F)c2nc1C1CC1 [Compound 24, 6-(5-cyclopropyl-6-methoxypyrazolo[1,5-a]pyrimidin-3-yl)-3,5-difluoro-N-((3S,4S)-4-fluoropyrrolidin-3-yl)pyridin-2-amine] | – | – | – | < 0.5 | 2 | < 0.5

Next, values leading:

Row | IC50 (IRAK4; Table 17) [nM] | IC50 (IRAK1; Table 17) [nM] | IC50 (FLT3; Table 17) [nM] | IC50 (IRAK4; Table 11) [nM] | IC50 (IRAK1; Table 11) [nM] | IC50 (FLT3; Table 11) [nM] | Compound
7 | 0.8 | 6 | < 0.5 | – | – | – | COc1cn2ncc(-c3cncc(N[C@H]4CNCC[C@@H]4F)n3)c2nc1C1CC1 [Compound 12a, 6-(5-cyclopropyl-6-methoxypyrazolo[1,5-a]pyrimidin-3-yl)-N-((3S,4S)-4-fluoropiperidin-3-yl)pyrazin-2-amine]
8 | < 0.5 | < 0.5 | < 0.5 | – | – | – | COc1cn2ncc(-c3nc(N[C@H]4CNC[C@@H]4F)ncc3F)c2nc1C1CC1 [Compound 13a, 4-(5-cyclopropyl-6-methoxypyrazolo[1,5-a]pyrimidin-3-yl)-5-fluoro-N-((3S,4S)-4-fluoropyrrolidin-3-yl)pyrimidin-2-amine]
9 | 0.6 | 0.9 | < 0.5 | – | – | – | COc1cn2ncc(-c3nc(N[C@@H]4CCCNC4)ncc3F)c2nc1C1CC1 [Compound 14a, (R)-4-(5-cyclopropyl-6-methoxypyrazolo[1,5-a]pyrimidin-3-yl)-5-fluoro-N-(piperidin-3-yl)pyrimidin-2-amine]
10 | 0.7 | < 0.5 | 0.7 | – | – | – | COc1cn2ncc(-c3nc(N[C@H]4CNCC[C@@H]4F)ncc3F)c2nc1C1CC1 [Compound 15a, 4-(5-cyclopropyl-6-methoxypyrazolo[1,5-a]pyrimidin-3-yl)-5-fluoro-N-((3S,4S)-4-fluoropiperidin-3-yl)pyrimidin-2-amine]
